The assay concerns the target T1, human Fatty Acid Synthase (Homo sapiens, UniProt P49327).
T1 construct: made in house
Put plainly: Human FAS enzyme assay (decrease in NADPH fluorescence). The note with it: % inhibition at a concentration of 100 μmolar. The format is biochemical. A digest of the protocol:
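In-house human FAS was preincubated with compound and NADPH for 15 min at room temperature in 0.1 M Tris pH 7.5 with EDTA, glutathione and BSA. Malonyl CoA and acetyl CoA (500 μM and 150 μM in the added mix) were then added for 60 min. IC50 came from time-zero-subtracted NADPH fluorescence (340/460 nm).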

This passage reports inhibition results from patent US20090118332A1, “Therapeutic Agents - 551” (AstraZeneca AB, priority 2006, published 2009).

Molecules are shown by their SMILES.

T1 sequence (P49327 whole entry): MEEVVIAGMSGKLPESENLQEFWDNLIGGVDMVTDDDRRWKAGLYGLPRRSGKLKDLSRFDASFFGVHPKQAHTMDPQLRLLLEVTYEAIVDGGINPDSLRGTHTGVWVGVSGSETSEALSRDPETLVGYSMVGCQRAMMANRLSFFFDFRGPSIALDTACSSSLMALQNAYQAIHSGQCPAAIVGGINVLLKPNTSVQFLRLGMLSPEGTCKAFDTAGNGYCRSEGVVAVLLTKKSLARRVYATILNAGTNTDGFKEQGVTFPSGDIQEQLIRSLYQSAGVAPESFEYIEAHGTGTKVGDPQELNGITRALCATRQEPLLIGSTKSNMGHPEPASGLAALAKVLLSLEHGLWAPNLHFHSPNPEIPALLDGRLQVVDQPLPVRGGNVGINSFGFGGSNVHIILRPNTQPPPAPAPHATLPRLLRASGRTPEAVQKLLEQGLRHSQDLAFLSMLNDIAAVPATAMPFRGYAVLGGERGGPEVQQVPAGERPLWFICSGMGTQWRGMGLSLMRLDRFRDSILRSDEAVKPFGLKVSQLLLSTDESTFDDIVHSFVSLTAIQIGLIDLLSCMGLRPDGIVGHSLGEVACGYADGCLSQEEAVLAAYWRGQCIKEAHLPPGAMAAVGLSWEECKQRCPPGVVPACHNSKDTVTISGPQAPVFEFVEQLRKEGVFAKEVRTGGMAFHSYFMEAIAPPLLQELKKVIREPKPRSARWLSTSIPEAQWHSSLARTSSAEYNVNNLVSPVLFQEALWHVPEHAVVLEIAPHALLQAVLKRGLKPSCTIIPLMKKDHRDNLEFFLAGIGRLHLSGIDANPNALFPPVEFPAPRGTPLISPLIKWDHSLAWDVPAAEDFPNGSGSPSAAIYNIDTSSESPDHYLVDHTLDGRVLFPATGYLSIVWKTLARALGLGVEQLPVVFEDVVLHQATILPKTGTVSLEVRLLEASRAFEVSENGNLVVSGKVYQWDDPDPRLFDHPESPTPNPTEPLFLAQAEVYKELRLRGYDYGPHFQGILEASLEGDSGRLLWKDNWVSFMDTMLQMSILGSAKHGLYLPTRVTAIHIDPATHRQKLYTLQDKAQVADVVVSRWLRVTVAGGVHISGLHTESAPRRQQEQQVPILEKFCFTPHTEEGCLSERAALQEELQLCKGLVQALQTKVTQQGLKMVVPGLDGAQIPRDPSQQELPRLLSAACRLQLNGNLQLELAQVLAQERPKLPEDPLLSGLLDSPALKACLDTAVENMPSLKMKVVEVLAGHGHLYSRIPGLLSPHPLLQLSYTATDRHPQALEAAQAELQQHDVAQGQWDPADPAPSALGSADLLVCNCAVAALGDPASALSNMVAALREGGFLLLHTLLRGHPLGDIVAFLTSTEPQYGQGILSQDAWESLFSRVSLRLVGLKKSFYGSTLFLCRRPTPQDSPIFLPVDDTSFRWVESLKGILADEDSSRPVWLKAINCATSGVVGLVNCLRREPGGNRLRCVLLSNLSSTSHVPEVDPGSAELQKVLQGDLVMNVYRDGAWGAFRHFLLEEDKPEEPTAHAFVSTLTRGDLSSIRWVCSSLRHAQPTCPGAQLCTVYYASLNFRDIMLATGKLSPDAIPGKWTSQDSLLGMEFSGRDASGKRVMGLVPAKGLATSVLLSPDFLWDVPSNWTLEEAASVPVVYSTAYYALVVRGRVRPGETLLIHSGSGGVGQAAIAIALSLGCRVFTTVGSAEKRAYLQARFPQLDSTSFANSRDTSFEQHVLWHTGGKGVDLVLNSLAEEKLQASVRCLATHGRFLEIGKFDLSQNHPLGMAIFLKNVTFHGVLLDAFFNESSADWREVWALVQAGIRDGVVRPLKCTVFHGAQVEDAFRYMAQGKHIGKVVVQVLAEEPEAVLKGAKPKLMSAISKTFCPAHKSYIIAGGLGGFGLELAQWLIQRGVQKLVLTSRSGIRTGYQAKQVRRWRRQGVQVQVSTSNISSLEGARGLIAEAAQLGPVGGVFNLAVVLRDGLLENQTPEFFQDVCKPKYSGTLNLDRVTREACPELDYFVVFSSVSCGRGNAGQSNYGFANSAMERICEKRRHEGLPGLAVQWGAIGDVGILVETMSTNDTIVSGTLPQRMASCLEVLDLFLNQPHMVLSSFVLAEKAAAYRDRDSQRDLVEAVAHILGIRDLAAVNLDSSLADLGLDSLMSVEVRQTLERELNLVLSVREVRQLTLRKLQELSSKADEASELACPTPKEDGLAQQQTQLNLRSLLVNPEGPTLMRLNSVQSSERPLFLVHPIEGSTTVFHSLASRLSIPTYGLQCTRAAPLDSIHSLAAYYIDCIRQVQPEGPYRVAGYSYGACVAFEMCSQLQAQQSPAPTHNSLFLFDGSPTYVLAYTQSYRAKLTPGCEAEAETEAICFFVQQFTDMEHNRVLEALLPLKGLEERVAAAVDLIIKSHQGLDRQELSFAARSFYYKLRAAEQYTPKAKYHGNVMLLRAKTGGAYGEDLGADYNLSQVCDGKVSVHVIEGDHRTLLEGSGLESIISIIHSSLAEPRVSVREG

Broadly, the inhibition is the change of the read-out against control, counted positive when it falls. In the case of `Cc1ccc(C(=O)N2CCC(c3ccc(C#N)cc3)CC2)cc1NC(=O)NC1CCCCNC1=O` (stereo not drawn) [Example 133, 1-[5-[4-(4-cyanophenyl)piperidine-1-carbonyl]-2-methyl-phenyl]-3-(2-oxoazepan-3-yl)urea], the inhibition at 100 µM is 81.2%.

As for `Cc1ccc(C(=O)N2CCC(c3ccc(C#N)cc3)CC2)cc1NC(=O)NC1CCCC[C@@H]1C(N)=O` (stereo partly drawn) [Example 134, (1S)-2-[[5-[4-(4-cyanophenyl)piperidine-1-carbonyl]-2-methyl-phenyl]carbamoylamino]cyclohexane-1-carboxamide], the inhibition at 100 µM is 84.6%.

Regarding `Cc1ccc(C(=O)N2CCC(c3ccc(C#N)cc3)CC2)cc1NC(=O)NCCN1CCNC1=O` [Example 135, 1-[5-[4-(4-cyanophenyl)piperidine-1-carbonyl]-2-methyl-phenyl]-3-[2-(2-oxoimidazolidin-1-yl)ethyl]urea], the inhibition at 100 µM was determined as 81.1%.

With `Cc1ccc(C(=O)N2CCC(c3ccc(C#N)cc3)CC2)cc1NC(=O)NCc1cc(=O)[nH]o1` [Example 136, 1-[5-[4-(4-cyanophenyl)piperidine-1-carbonyl]-2-methyl-phenyl]-3-[(3-oxo-1,2-oxazol-5-yl)methyl]urea], the inhibition at 100 µM came to 80.9%.

Consider `Cc1ccc(C(=O)N2CCC(c3ccc(C#N)cc3)CC2)cc1NC(=O)NCCN1CCCC1` [Example 137, 1-[5-[4-(4-cyanophenyl)piperidine-1-carbonyl]-2-methyl-phenyl]-3-(2-pyrrolidin-1-ylethyl)urea], for which the inhibition at 100 µM came out at 87.9%.

With `Cc1ccc(C(=O)N2CCC(c3ccc(C#N)cc3)CC2)cc1NC(=O)NCCCN(C)C` [Example 138, 1-[5-[4-(4-cyanophenyl)piperidine-1-carbonyl]-2-methyl-phenyl]-3-(3-dimethylaminopropyl)urea], the inhibition at 100 µM was 83.7%.

Turning to `Cc1ccc(C(=O)N2CCC(c3ccc(C#N)cc3)CC2)cc1NC(=O)NCCc1c[nH]cn1` [Example 139, 1-[5-[4-(4-cyanophenyl)piperidine-1-carbonyl]-2-methyl-phenyl]-3-[2-(1H-imidazol-4-yl)ethyl]urea], the inhibition at 100 µM amounted to 87%.

Take `Cc1ccc(C(=O)N2CCC(c3ccc(C#N)cc3)CC2)cc1NC(=O)NCCCN1CCN(C)CC1` [Example 140, 1-[5-[4-(4-cyanophenyl)piperidine-1-carbonyl]-2-methyl-phenyl]-3-[3-(4-methylpiperazin-1-yl)propyl]urea]: the inhibition at 100 µM is 79.2%.

With `Cc1ccc(C(=O)N2CCC(c3ccc(C#N)cc3)CC2)cc1NC(=O)NCCCN(CCO)CCO` [Example 141, 3-[3-(bis(2-hydroxyethyl)amino)propyl]-1-[5-[4-(4-cyanophenyl)piperidine-1-carbonyl]-2-methyl-phenyl]urea], the inhibition at 100 µM came out at 82.1%.

As to `Cc1ccc(C(=O)N2CCC(c3ccc(C#N)cc3)CC2)cc1NC(=O)NCCCCN(C)C` [Example 142, 1-[5-[4-(4-cyanophenyl)piperidine-1-carbonyl]-2-methyl-phenyl]-3-(4-dimethylaminobutyl)urea], the inhibition at 100 µM amounted to 80.3%.

`Cc1ccc(C(=O)N2CCC(c3ccc(C#N)cc3)CC2)cc1NC(=O)NC1CN2CCC1CC2` (stereo not drawn) [Example 143, 3-(1-azabicyclo[2.2.2]oct-8-yl)-1-[5-[4-(4-cyanophenyl)piperidine-1-carbonyl]-2-methyl-phenyl]urea]: the inhibition at 100 µM is 84.4%.

In the case of `Cc1ccc(C(=O)N2CCC(c3ccc(C#N)cc3)CC2)cc1NC(=O)NCCC1CCCN1C` (stereo not drawn) [Example 144, 1-[5-[4-(4-cyanophenyl)piperidine-1-carbonyl]-2-methyl-phenyl]-3-[2-(1-methylpyrrolidin-2-yl)ethyl]urea], the inhibition at 100 µM was 81.7%.

In the case of `Cc1ccc(C(=O)N2CCC(c3ccc(C#N)cc3)CC2)cc1NC(=O)NCCN(C)C` [Example 145, 1-[5-[4-(4-cyanophenyl)piperidine-1-carbonyl]-2-methyl-phenyl]-3-(2-dimethylaminoethyl)urea], the inhibition at 100 µM is 79.3%.

Turning to `Cc1ccc(C(=O)N2CCC(c3ccc(C#N)cc3)CC2)cc1NC(=O)NCCCN1CCOCC1` [Example 146, 1-[5-[4-(4-cyanophenyl)piperidine-1-carbonyl]-2-methyl-phenyl]-3-(3-morpholin-4-ylpropyl)urea], the inhibition at 100 µM turned out to be 89.7%.

Regarding `COCCN1CCC(NC(=O)Nc2cc(C(=O)N3CCC(c4ccc(C#N)cc4)CC3)ccc2C)CC1` [Example 147, 1-[5-[4-(4-cyanophenyl)piperidine-1-carbonyl]-2-methyl-phenyl]-3-[1-(2-methoxyethyl)-4-piperidyl]urea], the inhibition at 100 µM stood at 79.5%.

As for `Cc1ccc(C(=O)N2CCC(c3ccc(C#N)cc3)CC2)cc1NC(=O)NC1CCN(C)CC1` [Example 148, 1-[5-[4-(4-cyanophenyl)piperidine-1-carbonyl]-2-methyl-phenyl]-3-(1-methyl-4-piperidyl)urea], the inhibition at 100 µM is 79.5%.

For `CCN1CCC[C@H]1CNC(=O)Nc1cc(C(=O)N2CCC(c3ccc(C#N)cc3)CC2)ccc1C` [Example 149, 3-[5-[4-(4-cyanophenyl)piperidine-1-carbonyl]-2-methyl-phenyl]-1-[[(2S)-1-ethylpyrrolidin-2-yl]methyl]urea], the inhibition at 100 µM was found to be 80.2%.

Turning to `Cc1ccc(C(=O)N2CCC(c3ccc(C#N)cc3)CC2)cc1NC(=O)NCc1cncn1C` [Example 150, 1-[5-[4-(4-cyanophenyl)piperidine-1-carbonyl]-2-methyl-phenyl]-3-[(3-methylimidazol-4-yl)methyl]urea], the inhibition at 100 µM is 85%.

As to `Cc1ccc(C(=O)N2CCC(c3ccc(C#N)cc3)CC2)cc1NC(=O)NCC1CCCO1` (stereo not drawn) [Example 151, 1-[5-[4-(4-cyanophenyl)piperidine-1-carbonyl]-2-methyl-phenyl]-3-(oxolan-2-ylmethyl)urea], the inhibition at 100 µM is 92.1%.

For the molecule `COCCNC(=O)Nc1cc(C(=O)N2CCC(c3ccc(C#N)cc3)CC2)ccc1C` [Example 152, 1-[5-[4-(4-cyanophenyl)piperidine-1-carbonyl]-2-methyl-phenyl]-3-(2-methoxyethyl)urea], the inhibition at 100 µM is 95.1%.

As for `Cc1ccc(C(=O)N2CCC(c3ccc(C#N)cc3)CC2)cc1NC(=O)NCCCOC(C)C` [Example 153, 1-[5-[4-(4-cyanophenyl)piperidine-1-carbonyl]-2-methyl-phenyl]-3-(3-propan-2-yloxypropyl)urea], the inhibition at 100 µM is 88.2%.

For `COCCCNC(=O)Nc1cc(C(=O)N2CCC(c3ccc(C#N)cc3)CC2)ccc1C` [Example 154, 1-[5-[4-(4-cyanophenyl)piperidine-1-carbonyl]-2-methyl-phenyl]-3-(3-methoxypropyl)urea], the inhibition at 100 µM was found to be 93%.

With `COCC(C)NC(=O)Nc1cc(C(=O)N2CCC(c3ccc(C#N)cc3)CC2)ccc1C` (stereo not drawn) [Example 155, 1-[5-[4-(4-cyanophenyl)piperidine-1-carbonyl]-2-methyl-phenyl]-3-(1-methoxypropan-2-yl)urea], the inhibition at 100 µM turned out to be 90.1%.

As to `CSCCNC(=O)Nc1cc(C(=O)N2CCC(c3ccc(C#N)cc3)CC2)ccc1C` [Example 156, 1-[5-[4-(4-cyanophenyl)piperidine-1-carbonyl]-2-methyl-phenyl]-3-(2-methylsulfanylethyl)urea], the inhibition at 100 µM came out at 92.2%.

For the molecule `CSCCCNC(=O)Nc1cc(C(=O)N2CCC(c3ccc(C#N)cc3)CC2)ccc1C` [Example 157, 1-[5-[4-(4-cyanophenyl)piperidine-1-carbonyl]-2-methyl-phenyl]-3-(3-methylsulfanylpropyl)urea], the inhibition at 100 µM was 92.7%.

For `CCOCCCNC(=O)Nc1cc(C(=O)N2CCC(c3ccc(C#N)cc3)CC2)ccc1C` [Example 158, 3-[5-[4-(4-cyanophenyl)piperidine-1-carbonyl]-2-methyl-phenyl]-1-(3-ethoxypropyl)urea], the inhibition at 100 µM was determined as 89.1%.

For the molecule `COC(C)(C)CNC(=O)Nc1cc(C(=O)N2CCC(c3ccc(C#N)cc3)CC2)ccc1C` [Example 159, 1-[5-[4-(4-cyanophenyl)piperidine-1-carbonyl]-2-methyl-phenyl]-3-(2-methoxy-2-methyl-propyl)urea], the inhibition at 100 µM is 88%.

With `Cc1ccc(C(=O)N2CCC(c3ccc(C#N)cc3)CC2)cc1NC(=O)NCC1COCCO1` (stereo not drawn) [Example 160, 1-[5-[4-(4-cyanophenyl)piperidine-1-carbonyl]-2-methyl-phenyl]-3-(1,4-dioxan-2-ylmethyl)urea], the inhibition at 100 µM stood at 94.9%.

On to `COCCOCCCNC(=O)Nc1cc(C(=O)N2CCC(c3ccc(C#N)cc3)CC2)ccc1C` [Example 161, 1-[5-[4-(4-cyanophenyl)piperidine-1-carbonyl]-2-methyl-phenyl]-3-[3-(2-methoxyethoxy)propyl]urea], for which the inhibition at 100 µM amounted to 93.7%.

On to `Cc1ccc(C(=O)N2CCC(c3ccc(C#N)cc3)CC2)cc1NC(=O)NC1CCOCC1` [Example 162, 1-[5-[4-(4-cyanophenyl)piperidine-1-carbonyl]-2-methyl-phenyl]-3-(oxan-4-yl)urea], for which the inhibition at 100 µM was 84.2%.

For the molecule `Cc1ccc(C(=O)N2CCC(c3ccc(C#N)cc3)CC2)cc1NC(=O)NC1COc2ccccc2OC1` [Example 163, 1-[5-[4-(4-cyanophenyl)piperidine-1-carbonyl]-2-methyl-phenyl]-3-(2,6-dioxabicyclo[5.4.0]undeca-8,10,12-trien-4-yl)urea], the inhibition at 100 µM was found to be 102%.

Turning to `CCCOCCNC(=O)Nc1cc(C(=O)N2CCC(c3ccc(C#N)cc3)CC2)ccc1C` [Example 164, 3-[5-[4-(4-cyanophenyl)piperidine-1-carbonyl]-2-methyl-phenyl]-1-(2-propoxyethyl)urea], the inhibition at 100 µM amounted to 95%.

For the molecule `Cc1ccc(C(=O)N2CCC(c3ccc(C#N)cc3)CC2)cc1NC(=O)NCC1COc2ccccc2O1` (stereo not drawn) [Example 165, 1-[5-[4-(4-cyanophenyl)piperidine-1-carbonyl]-2-methyl-phenyl]-3-(7,10-dioxabicyclo[4.4.0]deca-2,4,11-trien-8-ylmethyl)urea], the inhibition at 100 µM came to 92.4%.
